Data on 16 molecules can be found in patent US8969542B2, “HPV polyepitope constructs and uses thereof” (priority 2007, dated 2015).

Where a SMILES comes first, the peptide text is derived from it.

Assay [1] relates to CD8+ spleen cells of HLA transgenic mice (HLA-A01/Kb, F1 HLA-A02/KbxBalb/c, HLA-A11/Kb, HLA-A24/Kb). Description: Immunogenicity after HPV DNA construct immunization, direct ex vivo IFNγ ELISPOT. To be noted: for ICCG6137 SFC/10^6 cells Delta / ICCG6137 SFC/10^6 cells Ratio: immunization with DNA construct ICCG 6137; for ICCG6137 SFC/10^6 cells Delta / ICCG6138 SFC/10^6 cells Delta: HLA transgenic mice (HLA-A01/A02/A11/A24), CD8+ cells restimulated with WT peptide 10 μg/mL; for ICCG6137 SFC/10^6 cells Delta / ICCG6138 SFC/10^6 cells Delta / ICCG6138 SFC/10^6 cells Ratio / ICCG6137 SFC/10^6 cells Ratio: IFNγ ELISPOT; for ICCG6138 SFC/10^6 cells Delta / ICCG6138 SFC/10^6 cells Ratio: immunization with DNA construct ICCG 6138; for ICCG6138 SFC/10^6 cells Ratio / ICCG6137 SFC/10^6 cells Ratio: HLA transgenic mice, response ratio, WT peptide 10 μg/mL. The format is in vivo, mouse. Here is the method:
The immunogenicity of HPV HLA class I-restricted epitopes encoded in the DNA constructs was tested in the relevant HLA transgenic mice. […] To ensure an equal distribution of mice between different groups, a randomisation procedure based on body weight was performed. Female and male mice (age between 8 and 24 weeks) were ranked by body weight, extreme light or heavy animals were excluded. The remaining animals were grouped by sequentially assigning animals for the 2 experiments.
Mice were pre-treated with cardiotoxin (Sigma, C9759) on day −4 by bilateral intramuscular injection of 100 μl (2×50 μl) of a 10 μM cardiotoxin solution. Four days later, all mice were immunised with 100 μg HPV-DNA plasmid (diluted to 1 mg/ml in PBS) by bilateral injection of 50 μg in the m. tibialis anterior. […]
(§1) Mice were euthanized and spleen cells (SPC) were isolated 13 days after immunization. […] Spleen cells of DNA- and peptide-immunized HLA-A11/Kb mice were analyzed individually. SPC of all negative control mice were pooled per 2 mice, resulting in 3 data points for each peptide tested.
(§2) A direct ex vivo IFNγ ELISPOT assay was used as surrogate CTL readout. Basically, purified CD8+ cells were incubated with the individual HPV-specific HLA-restricted peptides (10 μg/mL) loaded on the appropriate antigen presenting cells (APC), in anti-mouse IFNγ antibody-coated ELISPOT plates. […] After 20 h incubation, IFNγ-producing cells were visualized by further developing the plates with biotinylated anti-mouse IFNγ antibody, streptavidin-HRP and AEC as substrate.
(§3) Some of the CTL epitopes included in the DNA constructs are analoged sequences of the wild type viral epitopes. For these particular epitopes, only the wild type sequences were used as in vitro stimulus for CTL readout.

Assay [2] shares this test system. Nature of the assay: Immunogenicity after peptide pool/IFA immunization, direct ex vivo IFNγ ELISPOT. The format is in vivo, mouse. To be noted: for Delta SFC/10^6 cells / Ratio: Peptide Pool; for Peptide Pool SFC/10^6 cells Delta / Peptide Pool SFC/10^6 cells Ratio: immunization with pool of peptides emulsified in IFA, IFNγ ELISPOT; for Peptide Pool SFC/10^6 cells Delta: HLA transgenic mice (HLA-A01/A02/A11/A24), CD8+ cells restimulated with WT peptide 10 μg/mL; for Peptide Pool SFC/10^6 cells Ratio: HLA transgenic mice, response ratio, WT peptide 10 μg/mL. As for the experimental part: CTL binding epitopes were evaluated for their immunogenicity in different HLA transgenic mice. To this, a single immunization with CTL peptide pools together with a common HTL epitope emulsified in IFA was performed and up to 14 days later, CD8+ spleen cells were isolated and evaluated for epitope specificity using a direct ex vivo IFNγ ELISPOT assay.
Peptides were dissolved in DMSO at a concentration of 10 mg/mL. For each of the 4 DNA constructs, the corresponding HLA-restricted peptides were pooled per HLA type (5 to 7 CTL peptides/pool). A known HTL peptide ([…]) was added and the peptide pools were diluted in PBS to the required peptide concentration (i.e. 25 μg of each CTL peptide and 120 μg HTL peptide in 50 μl). After adding an equal volume of IFA (Pierce, lot DG56079), the mixture was emulsified by forcing it through a small orifice. Mice were immunized subcutaneously at the base of the tail with 50 μl peptide/IFA mixture.
As negative control for the peptide-immunized mice, 18 mice (in total) were injected with a PBS/IFA mixture.
as §1, §2, §3

Setting [3] is: HLA-A24 epitopes, HLA-A24/Kb mice, DNA construct ICCG6149, median of mouse pools.
Setting [4] is: HLA-A24 epitopes, HLA-A24/Kb mice, DNA construct ICCG6150, median of mouse pools.
[5] abbreviates: HLA-A24 epitopes, HLA-A24/Kb mice, median of mouse pools.
The mark [6] stands for this setting: HLA-A02 epitopes, F1 HLA-A02/KbxBalb/c mice, DNA construct ICCG6149, median of mouse pools.
Where [7] appears, read: HLA-A02 epitopes, F1 HLA-A02/KbxBalb/c mice, DNA construct ICCG6150, median of mouse pools.
Setting [8] is: HLA-A02 epitopes, F1 HLA-A02/KbxBalb/c mice, median of mouse pools.
Setting [9] is: HLA-A11 epitopes, HLA-A11/Kb mice, DNA construct ICCG6149, median.
[10] abbreviates: HLA-A11 epitopes, HLA-A11/Kb mice, DNA construct ICCG6150, median.
The mark [11] stands for this setting: HLA-A11 epitopes, HLA-A11/Kb mice, median.
The mark [12] stands for this setting: HLA-A01 epitopes, HLA-A01/Kb mice, DNA construct ICCG6150, median of mouse pools.
Where [13] appears, read: HLA-A01 epitopes, HLA-A01/Kb mice, median of mouse pools.

Consider “143 (LYNLLIRWL; Human papillomavirus type 18-derived epitope) [compound 143]”, for which the “Delta SFC/10^6 cells” value was found to be 3 SFC/10^6 cells in assay [1] (setting [3]), 1 SFC/10^6 cells in assay [1] (setting [4]) and 30 SFC/10^6 cells in assay [2] (setting [5]). Besides, the Ratio in assay [1] (setting [3]) amounted to 1.0; in assay [1] (setting [4]), 1.0; in assay [2] (setting [5]) it was 1.5.
On to `CC(C)C[C@H](NC(=O)[C@H](CS)NC(=O)[C@@H](NC(=O)[C@H](CO)NC(=O)[C@H](Cc1ccccc1)NC(=O)[C@H](CS)NC(=O)[C@H](CC(C)C)NC(=O)[C@H](CC(C)C)NC(=O)[C@@H](N)Cc1ccccc1)C(C)C)C(=O)O` [compound 75] (H-FLLCFSVCL-OH; N-terminus and C-terminus assumed), for which, in assay [1], the “ICCG6137 SFC/10^6 cells Delta” value is recorded as 1 SFC/10^6 cells and the “ICCG6138 SFC/10^6 cells Delta” value is reported as 1 SFC/10^6 cells. For the same molecule, in assay [2], the “Peptide Pool SFC/10^6 cells Delta” value stood at 75 SFC/10^6 cells.
As to “136 (KLTNTGLYNL; Human papillomavirus type 18) [compound 136]”, the “Delta SFC/10^6 cells” value stood at 6 SFC/10^6 cells in assay [1] (setting [6]), 20 SFC/10^6 cells in assay [1] (setting [7]) and 280 SFC/10^6 cells in assay [2] (setting [8]). In addition, the Ratio in assay [1] (setting [6]) is given as 2.0; in assay [1] (setting [7]), 2.7; in assay [2] (setting [8]) it was 29.0.
As to “144 (LYGVSFTEL; Human papillomavirus type 16-derived epitope) [compound 144]”, the figures for the “Delta SFC/10^6 cells” value in assay [1] (setting [3]), in assay [1] (setting [4]) and in assay [2] (setting [5]) were 3 SFC/10^6 cells, 1 SFC/10^6 cells and 5 SFC/10^6 cells, respectively. For the same molecule, the Ratio in assay [1] (setting [3]) amounted to 1.0; in assay [1] (setting [4]) it was 1.0; in assay [2] (setting [5]), 1.1.
Turning to “135 (TIHDIILECV; Human papillomavirus type 16) [compound 135]”, the “Delta SFC/10^6 cells” value turned out to be 562 SFC/10^6 cells in assay [1] (setting [6]), 358 SFC/10^6 cells in assay [1] (setting [7]) and 80 SFC/10^6 cells in assay [2] (setting [8]). The Ratio in assay [1] (setting [6]) came to 86.7; in assay [1] (setting [7]), 24.8; in assay [2] (setting [8]), 10.0.
With “139 (CYSLYGTTL; Human papillomavirus type 16) [compound 139]”, the “Delta SFC/10^6 cells” value in assay [1] (setting [3]) turned out to be 3 SFC/10^6 cells; in assay [1] (setting [4]), 1 SFC/10^6 cells; in assay [2] (setting [5]) it was 1 SFC/10^6 cells. The Ratio in assay [1] (setting [3]), in assay [1] (setting [4]) and in assay [2] (setting [5]) was 1.0 each time.
Take “147 (LQDVSIACVY; Human papillomavirus type 45) [compound 147]”: in assay [1], the “ICCG6138 SFC/10^6 cells Delta” value stood at 6 SFC/10^6 cells and the “ICCG6138 SFC/10^6 cells Ratio” value was 1.4. In assay [2], the “Peptide Pool SFC/10^6 cells Delta” value is given as 1 SFC/10^6 cells and the “Peptide Pool SFC/10^6 cells Ratio” value came to 1.0.
“148 (FAFTDLTIV; Human papillomavirus type 31) [compound 148]”: in assay [1], the “ICCG6137 SFC/10^6 cells Delta” value is 1 SFC/10^6 cells, the “ICCG6137 SFC/10^6 cells Ratio” value is 1.0, the “ICCG6138 SFC/10^6 cells Delta” value came to 1 SFC/10^6 cells and the “ICCG6138 SFC/10^6 cells Ratio” value amounted to 1.0. Further, in assay [2], the “Peptide Pool SFC/10^6 cells Delta” value worked out at 100 SFC/10^6 cells and the “Peptide Pool SFC/10^6 cells Ratio” value is listed as 8.5.
For “153 (HYTNWKFIY; Human papilloma virus) [compound 153]”, in assay [1], the “ICCG6137 SFC/10^6 cells Delta” value turned out to be 19 SFC/10^6 cells, the “ICCG6137 SFC/10^6 cells Ratio” value came out at 1.3, the “ICCG6138 SFC/10^6 cells Delta” value was 58 SFC/10^6 cells and the “ICCG6138 SFC/10^6 cells Ratio” value is given as 1.3. Moreover, in assay [2], the “Peptide Pool SFC/10^6 cells Delta” value is 155 SFC/10^6 cells and the “Peptide Pool SFC/10^6 cells Ratio” value was 2.7.
As for “145 (CYSVYGTTL; Human papillomavirus type 16-derived epitope) [compound 145]”, the “Delta SFC/10^6 cells” value is reported as 23 SFC/10^6 cells in assay [1] (setting [3]), 90 SFC/10^6 cells in assay [1] (setting [4]) and 55 SFC/10^6 cells in assay [2] (setting [5]). Further, the Ratio in assay [1] (setting [3]) is reported as 1.4; in assay [1] (setting [4]) it was 2.6; in assay [2] (setting [5]), 1.8.
Turning to “151 (RTEVYQFAFK; Human papillomavirus type 45) [compound 151]”, in assay [1], the “ICCG6137 SFC/10^6 cells Delta” value stood at 1 SFC/10^6 cells, the “ICCG6137 SFC/10^6 cells Ratio” value turned out to be 1.0, the “ICCG6138 SFC/10^6 cells Delta” value is reported as 1 SFC/10^6 cells and the “ICCG6138 SFC/10^6 cells Ratio” value is reported as 1.0. Further, in assay [2], the “Peptide Pool SFC/10^6 cells Delta” value came out at 1 SFC/10^6 cells and the “Peptide Pool SFC/10^6 cells Ratio” value is recorded as 1.0.
Regarding “149 (YQFAFKDLCI; Human papillomavirus type 45) [compound 149]”, in assay [1], the “ICCG6137 SFC/10^6 cells Delta” value is 3 SFC/10^6 cells, the “ICCG6137 SFC/10^6 cells Ratio” value was 1.1, the “ICCG6138 SFC/10^6 cells Delta” value was 1 SFC/10^6 cells and the “ICCG6138 SFC/10^6 cells Ratio” value was 1.0. Further, in assay [2], the “Peptide Pool SFC/10^6 cells Delta” value came out at 10 SFC/10^6 cells and the “Peptide Pool SFC/10^6 cells Ratio” value is given as 2.0.
As to “152 (SVYGTTLEK; Human papillomavirus type 31) [compound 152]”, in assay [1], the “ICCG6137 SFC/10^6 cells Delta” value is reported as 1050 SFC/10^6 cells, the “ICCG6137 SFC/10^6 cells Ratio” value was found to be 5.4, the “ICCG6138 SFC/10^6 cells Delta” value was determined as 1150 SFC/10^6 cells and the “ICCG6138 SFC/10^6 cells Ratio” value was determined as 9.7. Also, in assay [2], the “Peptide Pool SFC/10^6 cells Delta” value was 730 SFC/10^6 cells and the “Peptide Pool SFC/10^6 cells Ratio” value was 6.2.
As to “137 (DSVYGDTLEK; Human papillomavirus type 18) [compound 137]”, the “Delta SFC/10^6 cells” value in assay [1] (setting [9]) was 15 SFC/10^6 cells; in assay [1] (setting [10]), 1 SFC/10^6 cells; in assay [2] (setting [11]) it was 40 SFC/10^6 cells. The Ratio in assay [1] (setting [9]) stood at 1.2; in assay [1] (setting [10]), 1.0; in assay [2] (setting [11]) it was 1.1.
In the case of “134 (GTLGIVCPI; Human papillomavirus type 16) [compound 134]”, the “Delta SFC/10^6 cells” value in assay [1] (setting [6]) is reported as 1 SFC/10^6 cells; in assay [1] (setting [7]) it was 3 SFC/10^6 cells; in assay [2] (setting [8]), 55 SFC/10^6 cells. Also, the Ratio is 1.0 in assay [1] (setting [6]), 1.7 in assay [1] (setting [7]) and 8.0 in assay [2] (setting [8]).
“132 (ISEYRHYCY; Human papillomavirus type 16) [compound 132]”: in assay [1] (setting [12]), the “Delta SFC/10^6 cells” value turned out to be 3 SFC/10^6 cells and the Ratio worked out at 1.1. Also, in assay [2] (setting [13]), the “Delta SFC/10^6 cells” value worked out at 2 SFC/10^6 cells and the Ratio is recorded as 1.1.
